Toxic doses and inconclusive results are not listed. Rule as the data show it: active = T/C of 150% or more; inactive = T/C below 125%.
System: L1210 leukemia ip in BDF1 mice, survival T/C
Assay: NCI In Vivo Anticancer Drug Screen. Data for tumor model L1210 Leukemia (intraperitoneal) in B6D2F1 (BDF1) mice
Settings: endpoint: mean survival time, higher = longer survival
Summary of the method: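 Tumor was transplanted into mice, which were then dosed with test compound or vehicle alone. Survival was recorded for each group, and the treated figure was expressed relative to the control figure.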

[1] = dose: 12.5 mg/kg/injection, schedule: Q04DX003 (ip), vehicle: saline
[2] = dose: 25.0 mg/kg/injection, schedule: Q04DX003 (ip), vehicle: saline
[3] = dose: 100.0 mg/kg/injection, schedule: Q01DX001 (ip), vehicle: saline
[4] = dose: 200.0 mg/kg/injection, schedule: Q01DX001 (ip), vehicle: saline
[5] = dose: 400.0 mg/kg/injection, schedule: Q01DX001 (ip), vehicle: saline
[6] = dose: 100.0 mg/kg/injection, schedule: Q01DX009 (ip), vehicle: saline
[7] = dose: 100.0 mg/kg/injection, schedule: Q04DX003 (ip), vehicle: water
[8] = dose: 200.0 mg/kg/injection, schedule: Q01DX009 (ip), vehicle: saline
[9] = dose: 400.0 mg/kg/injection, schedule: Q01DX009 (ip), vehicle: saline
[10] = dose: 100.0 mg/kg/injection, schedule: Q01DX009 (ip), vehicle: Klucel (hydroxypropylcellulose) (HPC)
[11] = dose: 200.0 mg/kg/injection, schedule: Q01DX009 (ip), vehicle: Klucel (hydroxypropylcellulose) (HPC)
[12] = dose: 100.0 mg/kg/injection, schedule: Q04DX003 (ip), vehicle: Klucel (hydroxypropylcellulose) (HPC)
[13] = dose: 200.0 mg/kg/injection, schedule: Q04DX003 (ip), vehicle: Klucel (hydroxypropylcellulose) (HPC)
[14] = dose: 400.0 mg/kg/injection, schedule: Q04DX003 (ip), vehicle: Klucel (hydroxypropylcellulose) (HPC)

Measured: T/C

FC(F)(F)c1ccc2c(c1)N(CCCN1CCN(CC[n+]3ccccc3)CC1)c1ccccc1S2
inactive: dose: 1.56 mg/kg/injection, schedule: Q01DX009 (ip), vehicle: saline 95 % of control | dose: 3.12 mg/kg/injection, schedule: Q01DX009 (ip), vehicle: saline 95 % of control | dose: 6.25 mg/kg/injection, schedule: Q01DX009 (ip), vehicle: saline 110 % of control | dose: 9.2 mg/kg/injection, schedule: Q01DX009 (ip), vehicle: saline 120 % of control | [1] 101 % of control | dose: 14.0 mg/kg/injection, schedule: Q01DX009 (ip), vehicle: saline 109 % of control | [2] 97 % of control

CC(=O)ONC(=O)C(N)=O
inactive: dose: 50.0 mg/kg/injection, schedule: Q01DX001 (ip), vehicle: saline 95 % of control | [3] 101 % of control | [4] 95 % of control | [5] 103 % of control

CCC(C)C(CCN1CCCCC1)(CNC(=O)CN(CC)CC)Cc1cccc2ccccc12 (stereo unspecified)
inactive: [1] 101 % of control | [2] 103 % of control | dose: 50.0 mg/kg/injection, schedule: Q04DX003 (ip), vehicle: saline 98 % of control

CN=C1N[N+]2=CCCCC2(C)S1 (stereo unspecified)
inactive: dose: 0.2 mg/kg/injection, schedule: Q03HX024 (ip), vehicle: saline 96 % of control | dose: 0.39 mg/kg/injection, schedule: Q03HX024 (ip), vehicle: saline 100 % of control | dose: 0.78 mg/kg/injection, schedule: Q03HX024 (ip), vehicle: saline 93 % of control | dose: 1.56 mg/kg/injection, schedule: Q03HX024 (ip), vehicle: saline 95 % of control | dose: 3.13 mg/kg/injection, schedule: Q03HX024 (ip), vehicle: saline 101 % of control

CN/N=C\c1cc2ccccc2c2ccccc12
inactive: dose: 50.0 mg/kg/injection, schedule: Q01DX001 (ip), vehicle: alcohol 89 % of control | dose: 100.0 mg/kg/injection, schedule: Q01DX001 (ip), vehicle: alcohol 89 % of control | dose: 200.0 mg/kg/injection, schedule: Q01DX001 (ip), vehicle: alcohol 100 % of control | dose: 400.0 mg/kg/injection, schedule: Q01DX001 (ip), vehicle: alcohol 89 % of control

CCOC(=O)N(c1ccccc1)C1OCC(OC(C)=O)C(OC(C)=O)C1OC(C)=O (stereo unspecified)
inactive: [6] 97 % of control | [7] 97 % of control | [8] 93 % of control | dose: 200.0 mg/kg/injection, schedule: Q04DX003 (ip), vehicle: water 97 % of control | [9] 94 % of control | dose: 400.0 mg/kg/injection, schedule: Q04DX003 (ip), vehicle: water 94 % of control

CC1(C)N=C(N)N=C(N)N1c1ccc(OCCCNS(=O)(=O)c2ccc(S(=O)(=O)F)cc2)c(Cl)c1
inactive: dose: 37.5 mg/kg/injection, schedule: Q04DX003 (ip), vehicle: saline with Tween-80 103 % of control | dose: 75.0 mg/kg/injection, schedule: Q04DX003 (ip), vehicle: saline with Tween-80 108 % of control | dose: 150.0 mg/kg/injection, schedule: Q04DX003 (ip), vehicle: saline with Tween-80 107 % of control

CC1(C)C2(SCCS2)C(C)(C)C12SCCS2
inactive: [10] 96 % of control | [11] 95 % of control | dose: 400.0 mg/kg/injection, schedule: Q01DX009 (ip), vehicle: Klucel (hydroxypropylcellulose) (HPC) 104 % of control

CCCCCCCCCCCCCCCC[n+]1ccc(C#N)cc1
inactive: dose: 1.25 mg/kg/injection, schedule: Q01DX009 (ip), vehicle: saline 89 % of control | dose: 2.5 mg/kg/injection, schedule: Q01DX009 (ip), vehicle: saline 97 % of control | dose: 2.5 mg/kg/injection, schedule: Q04DX003 (ip), vehicle: saline 97 % of control | dose: 5.0 mg/kg/injection, schedule: Q01DX009 (ip), vehicle: saline 94 % of control | dose: 5.0 mg/kg/injection, schedule: Q04DX003 (ip), vehicle: saline 101 % of control | dose: 10.0 mg/kg/injection, schedule: Q01DX001 (ip), vehicle: saline 90 % of control | dose: 10.0 mg/kg/injection, schedule: Q04DX003 (ip), vehicle: saline 94 % of control

COc1ccccc1C(=O)N/N=C\c1c[nH]c2ccccc12
inactive: dose: 100.0 mg/kg/injection, schedule: Q04DX002 (ip), vehicle: Klucel (hydroxypropylcellulose) (HPC) 93 % of control | dose: 200.0 mg/kg/injection, schedule: Q04DX002 (ip), vehicle: Klucel (hydroxypropylcellulose) (HPC) 89 % of control | dose: 400.0 mg/kg/injection, schedule: Q04DX002 (ip), vehicle: Klucel (hydroxypropylcellulose) (HPC) 89 % of control

C1CCN[N-]C1.C1CCN[N-]C1.[Cl][Pt+2]([Cl])([Cl])[Cl]
inactive: dose: 25.0 mg/kg/injection, schedule: Q04DX003 (ip), vehicle: water 111 % of control | dose: 50.0 mg/kg/injection, schedule: Q04DX003 (ip), vehicle: water 102 % of control | [7] 102 % of control

CCC[CH2][Sn]1([CH2]CCC)[O]C(=O)c2ccc(C(=O)O)cc2C(=O)[O]1
inactive: dose: 5.0 mg/kg/injection, schedule: Q01DX001 (ip), vehicle: saline 105 % of control

O=c1cc(Nc2cccc(-c3ccccc3)c2)[nH]c(=O)[nH]1
inactive: dose: 87.5 mg/kg/injection, schedule: Q01DX001 (ip), vehicle: gum acacia 90 % of control | dose: 175.0 mg/kg/injection, schedule: Q01DX001 (ip), vehicle: gum acacia 102 % of control | dose: 350.0 mg/kg/injection, schedule: Q01DX001 (ip), vehicle: gum acacia 95 % of control

CCCCSC(=O)C(O)c1ccccc1 (stereo unspecified)
inactive: [3] 105 % of control | [4] 104 % of control | [5] 105 % of control

COc1ccc2c(c1)CC(CN1CCC3(CC1)C(=O)N(C)CN3c1ccccc1)O2 (stereo unspecified)
inactive: dose: 75.0 mg/kg/injection, schedule: Q04DX003 (ip), vehicle: Klucel (hydroxypropylcellulose) (HPC) 101 % of control | dose: 150.0 mg/kg/injection, schedule: Q04DX003 (ip), vehicle: Klucel (hydroxypropylcellulose) (HPC) 107 % of control | dose: 300.0 mg/kg/injection, schedule: Q04DX003 (ip), vehicle: Klucel (hydroxypropylcellulose) (HPC) 95 % of control

C[C@]12CC[C@@H]3c4ccc(O)cc4CC[C@H]3[C@@H]1CC[C@@H]2OC(=O)CCC1CCCC1
inactive: dose: 60.0 mg/kg/injection, schedule: Q04DX003 (sc), vehicle: steriod suspending solution 104 % of control | dose: 100.0 mg/kg/injection, schedule: Q01DX001 (sc), vehicle: steriod suspending solution 107 % of control | dose: 120.0 mg/kg/injection, schedule: Q04DX003 (sc), vehicle: steriod suspending solution 104 % of control | dose: 200.0 mg/kg/injection, schedule: Q01DX001 (sc), vehicle: steriod suspending solution 113 % of control | dose: 240.0 mg/kg/injection, schedule: Q04DX003 (sc), vehicle: steriod suspending solution 100 % of control | dose: 400.0 mg/kg/injection, schedule: Q01DX001 (sc), vehicle: steriod suspending solution 107 % of control

O=C(O)CCC(=O)Nc1ccccc1
inactive: [12] 95 % of control | [13] 97 % of control | [14] 101 % of control

CN=C(N)NC
inactive: dose: 50.0 mg/kg/injection, schedule: Q01DX009 (ip), vehicle: saline 94 % of control | [6] 100 % of control | dose: 100.0 mg/kg/injection, schedule: Q04DX003 (ip), vehicle: saline with Tween-80 98 % of control | [8] 91 % of control | dose: 200.0 mg/kg/injection, schedule: Q04DX003 (ip), vehicle: saline with Tween-80 97 % of control

CCOc1ccc2ccccc2c1OP(=O)(OCC)OCC
inactive: dose: 100.0 mg/kg/injection, schedule: Q04DX002 (ip), vehicle: other 103 % of control | dose: 200.0 mg/kg/injection, schedule: Q04DX002 (ip), vehicle: other 113 % of control | dose: 400.0 mg/kg/injection, schedule: Q04DX002 (ip), vehicle: other 106 % of control

COc1ccc(/C=C/c2nc3ccccc3nc2/C=C/c2ccc(OC)c(OC)c2)cc1OC
inactive: [10] 95 % of control | [12] 88 % of control | [11] 86 % of control | [13] 91 % of control | [14] 97 % of control

C/C=[N+](/[O-])CC
inactive: [6] 102 % of control | dose: 100.0 mg/kg/injection, schedule: Q04DX003 (ip), vehicle: saline 102 % of control | [8] 101 % of control | dose: 200.0 mg/kg/injection, schedule: Q04DX003 (ip), vehicle: saline 105 % of control | [9] 101 % of control | dose: 400.0 mg/kg/injection, schedule: Q04DX003 (ip), vehicle: saline 110 % of control

— PubChem BioAssay AID248 (DTP/NCI, 2004)
